Reference: patent US7499894B2, “Cerebral programming” (priority 2001, dated 2009)

Assays:
[1] = test system: cultured cortical network; settings: perfusion with APV and CNQX together; many published reports; cited from earlier work
[2] = test system: cultured network of cortical neurons; assay: Spiking activity of cultured cortical network, intracellular and MEA recordings; type: cell-based, rat; settings: all three applied together: 5 μM bicuculin, 10 μM DNQX and 20 μM APV; cortical neurons from newborn rats on MEA
Description: Culture techniques. Cortical neurons are obtained from newborn rats within 24 hours from birth, following standard procedures. The cortex tissue is digested enzymatically and mechanically dissociated. The neurons are plated directly onto substrate-integrated multi-electrode array (MEA) dishes (see below). The cultures are bathed in MEM supplemented with heat-inactivated horse serum (5%), Glutamine (0.5 mM), Glucose (20 mM), and Gentamycin (10 μg/ml), and maintained in an atmosphere of 37° C., 5% CO2 and 95% air in a tissue culture incubator and during the recording phases. Half of the medium is exchanged twice a week. Experiments are performed in the third week after plating, thus allowing complete maturation of the neurons.
The electrical activity of the cultured network is dependent upon synaptic transmission: there are many published reports showing that the electrical activity in a cultured cortical network may be blocked by perfusion with the N-Methyl-D-aspartate (NMDA) receptor antagonist D-2-amino-5-phosphonovalerate (APV) and non-NMDA receptor antagonist 6-cyano-7-nitroquinoxaline-2,3-dion (CNQX). We repeated these experiments, using intracellular recordings as well as MEA recordings.
Electrophysiological methods. We use arrays of 60 Ti/Au/TiN electrodes, 30 μm in diameter, spaced 200 μm from each other (MultiChannelSystems (MCS), Reutlingen, Germany). The insulation layer (silicon nitride), is pretreated with poly-L-lysine forming a good surface for network development. A commercial 60-channel amplifier (B-MEA-1060, MCS, Reutlingen, Germany) with frequency limits of 10-3000 Hz and a gain of ×1024 is used. The B-MEA-1060 is connected to MCPPlus filter amplifiers (Alpha Omega, Nazareth, Israel) for further amplification (×10 to ×20). Stimulation through the MEA is performed using a dedicated 8-channel stimulus generator (MCS, Reutlingen, Germany). Micro-incubation environment is arranged, to support long-term recordings from MEA dishes. […]

SMILES	electrical activity in a cultured cortical network [1]	spiking activity within the cultured network [2]
N#Cc1cc2c(cc1[N+](=O)[O-])=NC(=O)C(=O)N=2 [CNQX, 6-cyano-7-nitroquinoxaline-2,3-dion]	blocked	–
CN1CCc2cc3c(cc2[C@H]1[C@@H]1OC(=O)c2c1ccc1c2OCO1)OCO3 [bicuculin]	–	completely abolished
N[C@H](CCCP(=O)(O)O)C(=O)O [APV, D-2-amino-5-phosphonovalerate]	blocked	completely abolished
O=[N+]([O-])c1cc2nc(O)c(O)nc2cc1[N+](=O)[O-] [DNQX]	–	completely abolished
